Assay results: patent US5238962A, “Benzamide derivatives” (Hoffmann-La Roche Inc., priority 1983, dated 1993)

Key:
[1] = biological target: T1, monoamine oxidase (MAO) (Rattus norvegicus, UniProt P19643); test: MAO inhibiting activity in homogenates of brain and liver of rats after oral administration (phenethylamine as substrate); format: in vivo; conditions: 2 h, p.o. in rats, killed two hours after administration, homogenates of the brain and the liver, phenethylamine 2.10^-5 mol.1^-1 as substrate
T1 construct: from tissue; host or cells: rat brain and liver homogenates
T1 sequence (P19643 1-520): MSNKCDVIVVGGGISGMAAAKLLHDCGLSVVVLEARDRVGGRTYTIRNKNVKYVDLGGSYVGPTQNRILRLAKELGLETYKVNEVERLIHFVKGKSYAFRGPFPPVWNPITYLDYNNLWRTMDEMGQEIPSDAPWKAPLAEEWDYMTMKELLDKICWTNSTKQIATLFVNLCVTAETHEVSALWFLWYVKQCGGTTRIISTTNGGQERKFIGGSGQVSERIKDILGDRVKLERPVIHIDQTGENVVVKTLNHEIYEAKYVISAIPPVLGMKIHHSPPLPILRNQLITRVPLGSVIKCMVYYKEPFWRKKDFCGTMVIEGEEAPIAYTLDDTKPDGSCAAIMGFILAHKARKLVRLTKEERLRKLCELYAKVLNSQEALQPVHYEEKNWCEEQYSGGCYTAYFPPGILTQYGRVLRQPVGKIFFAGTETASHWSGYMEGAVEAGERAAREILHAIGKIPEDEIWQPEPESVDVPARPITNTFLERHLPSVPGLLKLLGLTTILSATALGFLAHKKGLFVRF
Experimental: The MAO inhibiting activity of the compounds of formula I and their pharmaceutically acceptable addition salts can be determined using standard methods. Thus, the substances to be tested were administered orally to rats. Two hours thereafter the animals were killed and the MAO inhibiting activity was measured in homogenates of the brain and the liver according to the method described in Biochem. Pharmacol. 12 (1963) 1439-1441, but using phenethylamine (2.10^-5 mol. 1^-1) in place of tyramine as the substrate.

[2] = toxicity (LD50, p.o. in mice); conditions: mouse, in vivo, po

| SMILES | ED50 [1] [µmol/kg] | LD50 [2] [mg/kg] |
| --- | --- | --- |
| NCCNC(=O)c1ccc(Cl)cc1Cl [N-(2-Aminoethyl)-2,4-dichlorobenzamide, N-(2-aminoethyl)-2,4-dichlorobenzamide] | 1.5 | 625 to 1250 |
| NCCNC(=O)c1ccc(Cl)c(Cl)c1 [N-(2-Aminoethyl)-3,4-dichlorobenzamide, N-(2-aminoethyl)-3,4-dichlorobenzamide] | 10.3 | 1000 to 2000 |
| NCCNC(=O)c1ccc(Br)cc1 [N-(2-Aminoethyl)-p-bromobenzamide] | 4 | 500 to 1000 |
| NCCNC(=O)c1ccc(Cl)cc1 [N-(2-Aminoethyl)-p-chlorobenzamide] |  | 1000 to 2000 |
| NCCNC(=O)c1ccc(F)cc1 [N-(2-Aminoethyl)-p-fluorobenzamide] | 4 | > 5000 |
| NCCNC(=O)c1ccccc1 [N-(2-Aminoethyl)benzamide] | 20 | > 5000 |
